In patent US10364256B2 (GlaxoSmithKline Intellectual Property Development Limited, priority 2015, dated 2019):

Assays:
[1] = biological target: T1, full length Keap1 protein / full length NRF2 protein (Homo sapiens, UniProt Q14145); assay: NRF2-Keap1 TR-FRET Assay; type: binding; conditions: 25 nM Keap1-FlagHis and 50 nM biotin-NRF2 added
T1 construct: full length NRF2 protein and full length Keap1 protein (Keap1 exists a dimer) are used; His
In short: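 Full-length Keap1-FlagHis preincubated with compound 2.25 h at 37 °C, then biotin-NRF2 added for 1.25 h at 4 °C, in Tris pH 8.0 with MgCl2, NaCl, BSA, DTT, CHAPS. TR-FRET 665/615 nm ratio normalised to with- and without-protein 1% DMSO controls; pIC50 from four-parameter fit.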

[2] = biological target: T1, full length Keap1 protein / full length NRF2 protein; assay: NRF2-Keap1 TR-FRET Low Protein Assay; type: binding; conditions: 1.25 nM Keap1 FlagHis and 2.5 nM biotin-NRF2 added
In short: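 Flag-tagged full-length Keap1 was preincubated with compound (3-fold series) for 2.25 h at 37 °C in Tris pH 8.0/MgCl2/NaCl/BSA/DTT/CHAPS. Biotin-Avi-NRF2 (added at 2.5 nM) was then bound for 1.25 h at 4 °C. Eu-streptavidin/anti-Flag-APC TR-FRET (665/615 nm) was read after 1 h at RT, and pIC50 came from a four-parameter fit.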

T1 sequence (Q14145 whole entry): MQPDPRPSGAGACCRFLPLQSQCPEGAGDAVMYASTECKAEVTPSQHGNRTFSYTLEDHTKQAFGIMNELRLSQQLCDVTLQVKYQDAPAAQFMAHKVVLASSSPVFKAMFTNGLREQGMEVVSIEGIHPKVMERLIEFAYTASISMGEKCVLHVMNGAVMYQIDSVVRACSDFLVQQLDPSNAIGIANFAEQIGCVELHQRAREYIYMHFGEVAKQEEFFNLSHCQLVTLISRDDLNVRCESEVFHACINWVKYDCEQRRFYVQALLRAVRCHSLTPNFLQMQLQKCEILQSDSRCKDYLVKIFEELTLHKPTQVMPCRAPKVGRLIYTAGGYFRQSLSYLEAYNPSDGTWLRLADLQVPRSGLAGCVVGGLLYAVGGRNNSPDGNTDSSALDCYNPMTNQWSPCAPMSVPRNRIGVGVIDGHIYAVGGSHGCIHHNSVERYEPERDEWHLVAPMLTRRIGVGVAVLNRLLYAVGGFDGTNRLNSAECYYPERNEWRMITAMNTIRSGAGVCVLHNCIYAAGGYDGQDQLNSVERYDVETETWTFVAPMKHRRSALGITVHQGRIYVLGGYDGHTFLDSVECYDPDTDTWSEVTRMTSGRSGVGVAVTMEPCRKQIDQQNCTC

IC50 [1] [nM]	IC50 [2] [nM]	Structure (SMILES)
1000 to 10000	100 to 1000	Cn1cc([C@H]2C[C@@H]2c2c(C(=O)O)cnn2-c2cccc(-c3cccc(OCc4ccc(-c5ccccc5)cc4)c3)c2)nn1 (racemic) [Example 237, 1-(3′-([1,1′-Biphenyl]-4-ylmethoxy)-[1,1′-biphenyl]-3-yl)-5-((1,2-trans)-2-(1-methyl-1H-1,2,3-triazol-4-yl)cyclopropyl)-1H-pyrazole-4-carboxylic Acid]
100 to 1000	10 to 100	CCCC1CCCCN1C(=O)c1cccc(-c2cccc(-n3ncc(C(=O)O)c3C3CC3)c2)c1F (centres unmarked) [Example 17, 5-Cyclopropyl-1-{3-[2-fluoro-3-(2-propylpiperidine-1-carbonyl)phenyl]phenyl}-1H-pyrazole-4-carboxylic Acid]
10000 to 100000	1000 to 10000	CCc1nc(-c2cccc(-c3cccc(-n4ncc(C(=O)O)c4C4CC4)c3)c2)no1 [Example 209, 5-Cyclopropyl-1-(3′-(5-ethyl-1,2,4-oxadiazol-3-yl)-[1,1′-biphenyl]-3-yl)-1H-pyrazole-4-carboxylic Acid]
1000 to 10000	1000 to 10000	O=C(O)c1cnn(-c2cccc(-c3cccc(-n4ncc5c4CCC5)c3)c2)c1C1CC1 [Example 61, 5-Cyclopropyl-1-(3′-(5,6-dihydrocyclopenta[c]pyrazol-1(4H)-yl)-[1,1′-biphenyl]-3-yl)-1H-pyrazole-4-carboxylic Acid]
1000 to 10000	1000 to 10000	Cc1nn(-c2cccc(-c3cccc(OCC4CCCCC4)c3)c2)c(C2CC2c2cn(C)nn2)c1C(=O)O (centres unmarked) [Example 188, 1-(3′-(cyclohexylmethoxy)-[1,1′-biphenyl]-3-yl)-3-methyl-5-(2-(1-methyl-1H-1,2,3-triazol-4-yl)cyclopropyl)-1H-pyrazole-4-carboxylic Acid]
10 to 100	< 10	CC(Oc1cccc(-c2cccc(-n3ncc(C(=O)O)c3[C@H]3C[C@@H]3c3cn(C)nn3)c2)c1)C1CCCCC1 (stereo partly drawn) [Example 165, 1-(3′-(1-Cyclohexylethoxy)-[1,1′-biphenyl]-3-yl)-5-((1S,2S)-2-(1-methyl-1H-1,2,3-triazol-4-yl)cyclopropyl)-1H-pyrazole-4-carboxylic acid]
10 to 100	< 10	Cn1cc([C@H]2C[C@@H]2c2c(C(=O)O)cnn2-c2cccc(-c3cccc(-n4ncc5c4C(C)(C)CC5)c3)c2)nn1 (stereo in doubt) [Example 208, 1-(3′-(6,6-Dimethyl-5,6-dihydrocyclopenta[c]pyrazol-1(4H)-yl)-[1,1′-biphenyl]-3-yl)-5-((1S,2S)-2-(1-methyl-1H-1,2,3-triazol-4-yl)cyclopropyl)-1H-pyrazole-4-carboxylic Acid]
100 to 1000	100 to 1000	COC1CCCCC1COc1cccc(-c2cccc(-n3ncc(C(=O)O)c3[C@H]3C[C@@H]3c3cn(C)nn3)c2)c1 (mixture of isomers) [Example 177, 1-(3′-((2-Methoxycyclohexyl)methoxy)-[1,1′-biphenyl]-3-yl)-5-((1,2-trans)-2-(1-methyl-1H-1,2,3-triazol-4-yl)cyclopropyl)-1H-pyrazole-4-carboxylic acid]
10 to 100	10 to 100	CC(Oc1cccc(-c2cccc(-n3ncc(C(=O)O)c3C3CC3c3cn(C)nn3)c2)c1)C1CCOCC1 (centres unmarked) [Example 227, 5-(2-(1-Methyl-1H-1,2,3-triazol-4-yl)cyclopropyl)-1-(3′-(1-(tetrahydro-2H-pyran-4-yl)ethoxy)-[1,1′-biphenyl]-3-yl)-1H-pyrazole-4-carboxylic Acid]
100 to 1000	100 to 1000	CC(Oc1cccc(-c2cccc(-n3ncc(C(=O)O)c3[C@H]3C[C@@H]3c3cn(C)nn3)c2)c1)c1cccc(-c2ccccc2)c1 (mixture of isomers) [Example 239, 1-(3′-(1-([1,1′-Biphenyl]-3-yl)ethoxy)-[1,1′-biphenyl]-3-yl)-5-((1,2-trans)-2-(1-methyl-1H-1,2,3-triazol-4-yl)cyclopropyl)-1H-pyrazole-4-carboxylic Acid]
1000 to 10000	100 to 1000	CC(Oc1cccc(-c2cccc(-n3ncc(C(=O)O)c3[C@@H]3C[C@H]3c3cn(C)nn3)c2)c1)C1CCCCC1 (stereo partly drawn) [Example 163, 1-(3′-(1-Cyclohexylethoxy)-[1,1′-biphenyl]-3-yl)-5-((1R,2R)-2-(1-methyl-1H-1,2,3-triazol-4-yl)cyclopropyl)-1H-pyrazole-4-carboxylic acid]
10 to 100	< 10	CCC[C@@H]1CCCCN1C(=O)c1cccc(-c2cc(C)cc(-n3ncc(C(=O)O)c3[C@@H]3C[C@H]3c3cn(C)nn3)c2)c1 (single isomer, unassigned) [Example 155]
10000 to 100000	1000 to 10000	CC(CC1CCCCC1)Oc1cccc(-c2cccc(-n3ncc(C(=O)O)c3C3CC3)c2)c1 (centres unmarked) [Example 161, 1-(3′-((1-Cyclohexylpropan-2-yl)oxy)-[1,1′-biphenyl]-3-yl)-5-cyclopropyl-1H-pyrazole-4-carboxylic Acid]
1000 to 10000	100 to 1000	CCC[C@@H]1CCCCN1C(=O)c1cccc(-c2cccc(-n3ncc(C(=O)O)c3[C@H]3C[C@@H]3c3cn(C)nn3)c2)c1 [Example 51g, 5-[(1S,2S)-2-(1-methyl-1H-1,2,3-triazol-4-yl)cyclopropyl]-1-(3-{3-[(2R)-2-propylpiperidine-1-carbonyl]phenyl}phenyl)-1H-pyrazole-4-carboxylic Acid]
10 to 100	< 10	CCC[C@@H]1CCCCN1C(=O)c1cccc(-c2cc(C)cc(-n3ncc(C(=O)O)c3C3CC3c3cn(C)nn3)c2)c1 (stereo partly drawn) [Example 154, 5-(2-(1-Methyl-1H-1,2,3-triazol-4-yl)cyclopropyl)-1-(5-methyl-3′-((R)-2-propylpiperidine-1-carbonyl)-[1,1′-biphenyl]-3-yl)-1H-pyrazole-4-carboxylic Acid]
100 to 1000	10 to 100	Cn1cc([C@@H]2C[C@H]2c2c(C(=O)O)cnn2-c2cccc(-c3cccc(OCC4CCSCC4)c3)c2)nn1 (racemic) [Example 149, 5-((1,2-trans)-2-(1-Methyl-1H-1,2,3-triazol-4-yl)cyclopropyl)-1-(3′-((tetrahydro-2H-thiopyran-4-yl)methoxy)-[1,1′-biphenyl]-3-yl)-1H-pyrazole-4-carboxylic acid]
100 to 1000	10 to 100	CC(Oc1cccc(-c2cccc(-n3ncc(C(=O)O)c3C3CC3c3cn(C)nn3)c2)c1)C1CCCC1 (centres unmarked) [Example 228, 1-(3′-(1-Cyclopentylethoxy)-[1,1′-biphenyl]-3-yl)-5-(2-(1-methyl-1H-1,2,3-triazol-4-yl)cyclopropyl)-1H-pyrazole-4-carboxylic acid]
10 to 100	< 10	CCC[C@@H]1CCCCN1C(=O)c1cccc(-c2cccc(-n3nc(C)c(C(=O)O)c3C3CC3c3cn(C)nn3)c2)c1 (stereo partly drawn) [Example 202, 3-Methyl-5-(2-(1-methyl-1H-1,2,3-triazol-4-yl)cyclopropyl)-1-(3′-((R)-2-propylpiperidine-1-carbonyl)-[1,1′-biphenyl]-3-yl)-1H-pyrazole-4-carboxylic acid]
100 to 1000	10 to 100	Cn1cc(C2CC2c2c(C(=O)O)cnn2-c2cccc(-c3cccc(OCc4ccccc4F)c3)c2)nn1 (centres unmarked) [Example 222, 1-(3′-((2-Fluorobenzyl)oxy)-[1,1′-biphenyl]-3-yl)-5-(2-(1-methyl-1H-1,2,3-triazol-4-yl)cyclopropyl)-1H-pyrazole-4-carboxylic acid]
100 to 1000	10 to 100	Cn1cc(C2CC2c2c(C(=O)O)cnn2-c2cccc(-c3cccc(OC4CCCCC4)c3)c2)nn1 (centres unmarked) [Example 229]
1000 to 10000	100 to 1000	CCCCC1CCc2cnn(-c3cccc(-c4cccc(-n5ncc(C(=O)O)c5C5CC5)c4)c3)c21 (centres unmarked) [Example 206, 1-(3′-(6-Butyl-5,6-dihydrocyclopenta[c]pyrazol-1(4H)-yl)-[1,1′-biphenyl]-3-yl)-5-cyclopropyl-1H-pyrazole-4-carboxylic Acid]
100 to 1000	10 to 100	COC1CCCC(COc2cccc(-c3cccc(-n4ncc(C(=O)O)c4[C@H]4C[C@@H]4c4cn(C)nn4)c3)c2)C1 (mixture of isomers) [Example 178, 1-(3′-((3-Methoxycyclohexyl)methoxy)-[1,1′-biphenyl]-3-yl)-5-((1,2-trans)-2-(1-methyl-1H-1,2,3-triazol-4-yl)cyclopropyl)-1H-pyrazole-4-carboxylic acid]
100 to 1000	10 to 100	Cn1cc(C2CC2c2c(C(=O)O)cnn2-c2cccc(-c3cccc(OC4CCOCC4)c3F)c2)nn1 (centres unmarked) [Example 234, 1-(2′-Fluoro-3′-((tetrahydro-2H-pyran-4-yl)oxy)-[1,1′-biphenyl]-3-yl)-5-(2-(1-methyl-1H-1,2,3-triazol-4-yl)cyclopropyl)-1H-pyrazole-4-carboxylic Acid]
100 to 1000	10 to 100	Cn1cc(C2CC2c2c(C(=O)O)cnn2-c2cccc(-c3cccc(CCC4CCCCC4)c3)c2)nn1 (centres unmarked) [Example 233, 1-(3′-(2-Cyclohexylethyl)-[1,1′-biphenyl]-3-yl)-5-(2-(1-methyl-1H-1,2,3-triazol-4-yl)cyclopropyl)-1H-pyrazole-4-carboxylic Acid]
1000 to 10000	100 to 1000	Cn1cc(C2CC2c2c(C(=O)O)cnn2-c2cccc(-c3cccc(OCc4ccc(F)cc4)c3)c2)nn1 (centres unmarked) [Example 223, 1-(3′-((4-Fluorobenzyl)oxy)-[1,1′-biphenyl]-3-yl)-5-(2-(1-methyl-1H-1,2,3-triazol-4-yl)cyclopropyl)-1H-pyrazole-4-carboxylic acid]
